Structures can show the parent of a compound that is named as a salt.
Columns and labels:
AChE = test system: AChE; set-up: method as in ref 31 (Kishibayashi et al.); settings: ref 31 (Kishibayashi et al.); cited from earlier work
[1] = target: benzodiazepine site of the GABAA receptor; experiment: GABAA-benzodiazepine site binding assay ([3H]-Ro-15-1788); settings: reference compound
Method: The GABAA-benzodiazepine site binding assay was performed as described by Mehta and Shank [28], with minor modifications. Membranes were incubated for 30 min at 22 °C in 50 mM Tris-HCl (pH 7.4) and 100 mM NaCl with 1 nM [^3H]-Ro-15-1788. Non-specific binding was determined with 10 μM diazepam.
From every data point non-specific binding was subtracted and data normalized (100% specific binding represents the specific binding of the radioligand to the binding site of the receptor in the absence of any effector).

[2] = target: serotonin 5-HT2C receptor; experiment: [3H]-mesulergine binding in native female hypothalami preparation; set-up: species or system human; settings: reference compound
Method: Human frozen hypothalami were from a healthy person and a healthy person (Tissue Solutions Ltd., Glasgow, UK). The tissue was minced in 20 ml 10 mM HEPES pH 7.4, 1 mM EDTA on ice with a disperger (20 s at 28 Trpm) and centrifuged for 15 min at 31,600×g at 4 °C. The pellet was homogenized (10 strokes with a glass-teflon homogenizer, 2000 rounds per minute) at 4 °C and again centrifuged. The latter procedure was repeated once and the pellet finally resupended in 50 mM HEPES pH 7.4, 4 mM MgCl2, and 1 mM EDTA; frozen in liquid nitrogen; and stored at − 80 °C until usage.
(§1) The serotonin 5-HT2C(e) receptor binding assay was performed according to the data sheet provided by the supplier of the receptor preparation, with modifications. The receptor preparation was incubated for 120 min at 37 °C in 50 mM Tris-HCl (pH 7.4), 0.1% ascorbic acid and 10 μM pargyline with 0.5 nM [N^6-methyl-^3H]-mesulergine in the dark.
In membranes from human native female hypothalami, no specific binding of the radioligand for the 5-HT1A, [^3H]-8-OH-DPAT, could be observed, indicating the absence of the serotonin 5-HT1A receptor at least in the investigated preparation.

[3] = target: human serotonin 5-HT2C(e) receptors; experiment: serotonin 5-HT2C(e) receptor binding assay ([3H]-mesulergine); settings: reference compound
Method: as §1
All assays were terminated by transfer of the samples onto filter plates (PerkinElmer or Whatman), presoaked in assaybuffer (GABAA, GABAB, alpha2A and muscarinic M3), treated with 0.5% BSA (μ-opioid), presoaked with 0.5% polyethyleneimine (5-HT2B, 5-HT2C(e)), or presoaked with 0.1% polyethyleneimine (5-HT1A, 5-HTT). Filters were washed four times with 200 μl of ice-cold 50 mM Tris-HCl pH 7.4 (GABAA, GABAB, Alpha2A, 5-HT1A, 5-HT2B 5-HT2C(e), μ-opioid, and muscarinic M3) or 50 mM Tris-HCl pH 7.4/0.5 M NaCl (5-HTT), and filter-bound radioactivity was determined by a microplate reader (Microbeta, Wallac, Finnland). […]
The IC50 value (concentration causing half-maximal inhibition of specific binding) was determined by non-linear regression analysis of the competition curves using the “sigmoidal dose-response” algorithm (GraphPad Prism, San Diego, USA). […]

[4] = target: human serotonin transporters; set-up: method as in ref 33 (Tatsumi et al.); settings: [3H]-imipramine binding; ref 33 (Tatsumi et al.); cited from earlier work

Question: With `CN(C)C(=O)Oc1cccc([N+](C)(C)C)c1` [neostigmine] as the molecule, how does the IC50 (AChE) read?
Answer: Its IC50 is 36 nM.

Question: Which IC50 [1] does the source give for `CN1C(=O)CN=C(c2ccccc2)c2cc(Cl)ccc21` [diazepam] here?
Answer: Its IC50 is 39 nM.

Question: With `O=C1Nc2cc(Cl)c(Cl)cc2N2CCNCC12` (centres unmarked) [WAY 161503, WAY 161503 hydrochloride] as the molecule, how does the IC50 [2] read?
Answer: The IC50 was 347 nM.

Question: What about the IC50 [3] of the same molecule?
Answer: Its IC50 is 163 nM.

Question: Which Kd [4] does the source give for `CN(C)CCCN1c2ccccc2CCc2ccccc21` [imipramine, Imipramine hydrochloride] here?
Answer: Its Kd is 1.4 nM.
